Data taken from patent US11066629B2, “Lipid metabolism-promoting composition including isoxanthohumol” (SUNTORY HOLDINGS LIMITED, priority 2016, dated 2021).

Tests used:
[1] = Effect of intake on fat burning, respiratory quotient (Oxymax respirometer); format: in vivo, mice (C57BL/6J); conditions: isoxanthohumol 0.2% in feed, 7 days, vs control group
Description: The effect of isoxanthohumol intake on fat burning was studied by the following procedure using a respirometer “Oxymax” (Bio Research Center Co., Ltd.).
As for the group structure, there were two groups: a control group and an isoxanthohumol 0.2% group. Eight mice (C57BL/6J, male, 14 weeks of age, CLFA Japan, Inc.) were purchased and acclimatized for about one week. Then, the mice were divided into the control group and the isoxanthohumol 0.2% group (n=4 in each group) by the stratified continuous randomization method based on body weight. Control diet “D12450J” (Research Diets) was used as basic feed. During the test period, the control group was fed with the basic feed, and the isoxanthohumol 0.2% group was fed with mixed feed of the basic feed and the test substance (isoxanthohumol obtained in Preparation Example 1) at a weight ratio of 0.2% relative to the basic feed.
The test period (a period in which the test substance was ingested, and breath analysis was performed) was seven days. […] Using Oxymax (Bio Research Center Co., Ltd.), the oxygen consumption (VO2) and the carbon dioxide output (VCO2) of each individual were measured over time and recorded.
The respiratory quotient (RQ) was calculated using the following formula 1 from the oxygen consumption (VO2) and the carbon dioxide output (VCO2) at each point. […]

[2] = Solubility of isoxanthohumol in various solvents under ice cooling conditions (Experiment B); format: physicochemical; conditions: for solubility relative to aqueous solution without γ-cyclodextrin: ice cooling
Description: (§1) The solubility of each of the standard samples of xanthohumol and isoxanthohumol in water (Experiment A) and various solvents (Experiment B) under ice cooling conditions was studied to evaluate the suitability for beverage applications. Xanthohumol and isoxanthohumol were the standard samples obtained in Preparation Example 1 (purity of 95% or higher).
Distilled water, a hop extract, and 0.2% (w/v) or 1.0% (w/v) aqueous solution of β-cyclodextrin or γ-cyclodextrin (both Nacalai Tesque, Inc.) were prepared as solvents to study the solubility of isoxanthohumol under ice cooling conditions. As for the hop extract, hops (Saaz) that had been crushed into pellets were extracted with distilled water in an amount 10 times the weight of the pellets by shaking at room temperature for about 60 minutes, and the filtrate obtained by suction filtration was used for the test. The isoxanthohumol concentration in the hop extract was less than 0.5 ppm. A sample containing a solvent and isoxanthohumol having a weight corresponding to 0.2% (w/v) of the solvent was prepared for each of the above solvents, and the standard sample was allowed to dissolve in water as much as possible by stirring in a vortex mixer for 10 seconds or longer and shaking for about 60 minutes under ice cooling conditions. Centrifugation and quantitative analysis were performed as in Experiment A to evaluate the solubility of isoxanthohumol in each solvent.

[3] = Solubility in water under ice cooling conditions (Experiment A); format: physicochemical; conditions: distilled water, ppm on w/v basis
Description: as §1
A sample containing distilled water and xanthohumol or isoxanthohumol having a weight corresponding to 0.2% (w/v) of the distilled water was prepared, and each standard sample was allowed to dissolve in distilled water as much as possible by stirring in a vortex mixer for 10 seconds or longer and shaking for about 60 minutes under ice cooling conditions. Further, centrifugation was performed (12,000 rpm, 4° C., for 5 minutes), and the supernatant was collected. This procedure was repeated three times. The finally obtained supernatant was used as a xanthohumol saturated aqueous solution or an isoxanthohumol saturated aqueous solution. The saturated aqueous solution was 100-fold diluted with a 25% aqueous ethanol solution to obtain a sample for analysis. The sample was subjected to quantitative analysis using an LC-MS/MS system (TSQ Quantiva, Thermo Fisher Scientific Inc.) to evaluate the solubility in water. […] Note that ppm is ppm on w/v basis unless otherwise specified. […]

high-fat diet model = test: Measurement of triglyceride (TG) content in liver; format: in vivo, Mice (C57BL/6J); conditions: livers of Example 1
Procedure: The neutral fat content (also referred to as “triglyceride content” or “TG content”) in the liver was measured using the liver extracted in Example 1. Specifically, the extracted liver was cut to obtain a section of about 30 mg, and 1 mL of a mixed solution containing methanol (Nacalai Tesque, Inc.) and chloroform (Nacalai Tesque, Inc.) at a ratio of 1:1 was added to the section which was then crushed with a bead beater, whereby triglyceride in the liver was extracted. After centrifugation (12000 g, for 15 minutes), the supernatant was collected, the solution was distilled off, and isopropanol was added for re-dissolution, whereby a sample was prepared. The triglyceride content in the sample was measured using Triglyceride E Test Wako (Wako), and the triglyceride content (mg/g) in the liver per unit weight was calculated. The data was presented as average f standard error. Student's t-test was used as a statistical test, and a difference with p<0.05 was considered significant.

## COc1cc(O)c(CC=C(C)C)c2c1C(=O)CC(c1ccc(O)cc1)O2 (stereo not drawn) [isoxanthohumol]
[1]
  respiratory quotient (RQ): lower
[2]; 0.2% (w/v) γ-cyclodextrin
  solubility relative to aqueous solution without γ-cyclodextrin: about 5 times
[2]; 1.0% (w/v) γ-cyclodextrin
  solubility relative to aqueous solution without γ-cyclodextrin: about 18 times
[2]; solvent: 0.2% β-Cyclodextrin
  Solubility (ice cooling conditions): 18.4 ppm
[2]; solvent: 0.2% γ-Cyclodextrin
  Solubility (ice cooling conditions): 33.6 ppm
[2]; solvent: 1.0% β-Cyclodextrin
  Solubility (ice cooling conditions): 52.0 ppm
[2]; solvent: 1.0% γ-Cyclodextrin
  Solubility (ice cooling conditions): 115.5 ppm
[2]; solvent: Distilled water
  Solubility (ice cooling conditions): 6.3 ppm
[2]; solvent: Hop extract
  Solubility (ice cooling conditions): 13.7 ppm
[3]
  Solubility in water (ice cooling conditions): 6.3 ppm
high-fat diet model; isoxanthohumol-administered group vs high-fat diet group
  neutral fat (triglyceride) content in the liver: significantly lower
high-fat diet model
  action on neutral fat content in the liver compared with xanthohumol: stronger than that of xanthohumol
